Results reported in patent US4772633A, “6-pyridyl- and 6-phenyl-3-phenyl-1-hexenes and -1-hexynes, composition containing them, and insecticidal and acaricidal method of using them” (Sumitomo Chemical Company, Limited, priority 1986, dated 1988).

Assays:
[1] = tested on: common mosquito (Culex pipiens pallens); experiment: Test Example 1: mortality of larvae and inhibition of emergence of common mosquito; format: in vivo; conditions: for Inhibitory ratio of emergence: 3.5 ppm, counted when all mosquitoes of no treatment group had emerged; for mortality at 3.5 ppm: Culex pipiens, 24 h, last instar larvae, after one day
Method: The emulsifiable concentrates of the following present compounds obtained according to Formulation example 2 were each diluted with water so as to obtain respective aqueous solutions containing 3.5 ppm of said compounds, respectively. One hundred ml of thus diluted aqueous solutions were poured into respective polyethylene cups of 180 ml volume, and 20 of the last instar larvae of common mosquito (Culex pipiens pallens) were liberated thereto. After one day, the dead or alive of the larvae were examined. Thereafter, the feed was added to respective cups and the number of emerged mosquitoes of the respective cups was counted when all the mosquitoes of no treatment group had […] to calculate the inhibitory ratios of the emergence. The mortality and the inhibitory ratio of the emergence are shown according to the following three criteria: mortality: A; 90% or more, […] inhibitory: A; 90% or more, ratio of emergence B; less than 90% to 80% C; less than 80%.

[2] = tested on: carmine spider mite (Tetranychus cinnabarinus); experiment: Test Example 8: degree of damage of kidney bean plant by carmine spider mite; format: in vivo; set-up: key: -: No damage is observed.; +: Slight damage is observed.; ++: The same damage as in the untreated plot is observed; conditions: 500 ppm, sprayed 15 ml/pot plus 2 ml to soil; after 8 days; 25° C.
Method: The female adults of carmine spider mite (Tetranychus cinnabarinus) were put at a rate of 10 adults/leaf on the leaves of potted kidney bean (at the primordial leaf stage) which had elapsed 7 days after sowing, and placed in a constant-temperature room kept at 25° C. After 6 days, the 200-fold aqueous dilute solutions (corresponding to 500 ppm), prepared from the emulsifiable concentrates of the following present compounds and control compounds prepared according to Formulation example 2, were each sprayed at a rate of 15 ml/pot on a turn table. At the same time, the soil in the pot was treated with 2 ml of each aqueous solution. After 8 days, the degree of damage of the plant by the mite was examined.
-: No damage is observed.
+: Slight damage is observed.
++: The same damage as in the untreated plot is observed.

Row | Compound | Inhibitory ratio of emergence [1] | mortality at 3.5 ppm [1] [%] | Degree of damage [2]
1 | C#CC(C)(CCCc1ccc(F)c(Oc2ccccc2)c1)c1ccc(OC)cc1 (centres unmarked) [(5), 3-(4-Methoxyphenyl)-3-methyl-6-(3-phenoxy-4-fluorophenyl)-1-hexyne] | A (90% or more) | > 90 | 
2 | C#CC(C)(CCCc1ccc(F)c(Oc2ccccc2)c1)c1ccc(OC(F)F)cc1 (centres unmarked) [(6), 3-(4-Difluoromethoxyphenyl)-3-methyl-6-(3-phenoxy-4-fluorophenyl)-1-hexyne] | A (90% or more) | > 90 | -
3 | C#CC(C)(CCCc1ccc(F)c(Oc2ccccc2)c1)c1ccc(OCC=C)cc1 (centres unmarked) [(8), 3-(4-Allyloxyphenyl)-3-methyl-6-(3-phenoxy-4-fluorophenyl)-1-hexyne] | A (90% or more) | > 90 | -
4 | C#CC(C)(CCCc1ccc(F)c(Oc2ccccc2)c1)c1ccc(F)cc1 (centres unmarked) [(9), 3-(4-Fluorophenyl)-3-methyl-6-(3-phenoxy-4-fluorophenyl)-1-hexyne] | A (90% or more) | > 90 | 
5 | C#CC(C)(CCCc1ccc(F)c(Oc2ccccc2)c1)c1ccc(Cl)cc1 (centres unmarked) [(10), 3-(4-Chlorophenyl)-3-methyl-6-(3-phenoxy-4-fluorophenyl)-1-hexyne] | A (90% or more) | > 90 | -
6 | C#CC(C)(CCCc1ccc(F)c(Oc2ccccc2)c1)c1ccc(OCC)c(Cl)c1 (centres unmarked) [(11), 3-(3-Chloro-4-ethoxyphenyl)-3-methyl-6-(3-phenoxy-4-fluorophenyl)-1-hexyne] | A (90% or more) | > 90 | -
7 | C#CC(C)(CCCc1ccc(F)c(Oc2ccccc2)c1)c1ccc2c(c1)OCO2 (centres unmarked) [(12), 3-(3,4-Methylenedioxyphenyl)-3-methyl-6-(3-phenoxy-4-fluorophenyl)-1-hexyne] | A (90% or more) | > 90 | 
8 | C#CC(C)(CCCc1cccc(Oc2ccccc2)c1)c1ccc2c(c1)OCO2 (centres unmarked) [(14), 3-(3,4-Methylenedioxyphenyl)-3-methyl-6-(3-phenoxyphenyl)-1-hexyne] | A (90% or more) | > 90 | 
9 | C#CC(C)(CCCc1cccc(Oc2ccc(F)cc2)c1)c1ccc(OCC)cc1 (centres unmarked) [(15), 3-(4-Ethoxyphenyl)-3-methyl-6-{3-(4-fluorophenoxy)phenyl}-1-hexyne] | A (90% or more) | > 90 | 
10 | C#CC(C)(CCCc1cccc(Oc2ccccc2)c1)c1ccc(OCC)c(Cl)c1 (centres unmarked) [(16), 3-(3-Chloro-4-ethoxyphenyl)-3-methyl-6-(3-phenoxyphenyl)-1-hexyne] | A (90% or more) | 10 to 90 | -
11 | C#CC(C)(CCCc1cccc(Oc2ccccc2)c1)c1ccc(OC(F)F)cc1 (centres unmarked) [(17), 3-(4-difluoromethoxyphenyl)-3-methyl-6-(3-phenoxyphenyl)-1-hexyne] | A (90% or more) | > 90 | -
12 | C#CC(C)(CCCc1cccc(Oc2ccccc2)n1)c1ccc(OCC)cc1 (centres unmarked) [(18), 3-(4-ethoxyphenyl)-3-methyl-6-(6-phenoxypyridin-2-yl)-1-hexyne] | A (90% or more) | > 90 | - ~ +
13 | C=CC(C)(CCCc1cccc(Oc2ccccc2)n1)c1ccc(OCC)cc1 (centres unmarked) [(19), 3-(4-Ethoxyphenyl)-3-methyl-6-(6-phenoxypyridin-2-yl)-1-hexene] | A (90% or more) | 10 to 90 | 
14 | C#CC(C)(CCCc1ccc(F)c(Oc2ccccc2)n1)c1ccc(OCC)cc1 (centres unmarked) [(20)] | A (90% or more) | > 90 | - ~ +
15 | C#CC(C)(CCCc1ccc(F)c(Nc2ccccc2)c1)c1ccc(OCC)cc1 (centres unmarked) [(21), 3-(4-Ethoxyphenyl)-3-methyl-6-(3-anilino-4-fluorophenyl)-1-hexyne] | A (90% or more) | > 90 | 
16 | C#CC(C)(CCCc1cccc(Sc2ccccc2)c1)c1ccc(OCC)cc1 (centres unmarked) [(22), 3-(4-Ethoxyphenyl)-3-methyl-6-(3-phenylthiophenyl)-1-hexyne] | A (90% or more) | 10 to 90 | 
17 | C#CC(C)(CCCc1cccc(Oc2ccccc2)c1)c1ccc(CC)cc1 (centres unmarked) [(23), 3-(4-Ethylphenyl)-3-methyl-6-(3-phenoxyphenyl)-1-hexyne] | A (90% or more) | > 90 | 
18 | C#CC(C)(CCCc1cccc(Oc2ccccc2)c1)c1ccc(OC)cc1 (centres unmarked) [(24), 3-(4-Methoxyphenyl)-3-methyl-6-(3-phenoxyphenyl)-1-hexyne] | A (90% or more) | 10 to 90 | 

Row | Compound | Inhibitory ratio of emergence [1] | mortality at 3.5 ppm [1] [%] | Degree of damage [2]
19 | C#CC(CC)(CCCc1cccc(Oc2ccccc2)c1)c1ccc(Cl)cc1 (centres unmarked) [(26), 3-(4-Chlorophenyl)-3-ethyl-6-(3-phenoxyphenyl)-1-hexyne] | A (90% or more) | > 90 | 
20 | C#CC(C)(CCCc1ccc(F)c(Oc2ccccc2)c1)c1ccc(OC(F)F)c(Cl)c1 (centres unmarked) [(27)] | A (90% or more) | 10 to 90 | 
21 | C#CC(CCCc1cccc(Oc2ccccc2)c1)c1ccc(OCC)cc1 (centres unmarked) [(28), 3-(4-Ethoxyphenyl)-6-(3-phenoxyphenyl)-1-hexyne] | A (90% or more) | > 90 | 
22 | C#CC(CC)(CCCc1ccc(F)c(Oc2ccccc2)c1)c1ccc(OCC)cc1 (centres unmarked) [(29), 3-(4-Ethoxyphenyl)-3-ethyl-6-(3-phenoxy-4-fluorophenyl)-1-hexyne] | A (90% or more) | > 90 | 
23 | C#CC(C)(CCCc1ccc(F)c(Cc2ccccc2)c1)c1ccc(OCC)cc1 (centres unmarked) [(30), 3-(4-Ethoxyphenyl)-3-methyl-6-(3-benzyl-4-fluorophenyl)-1-hexyne] | A (90% or more) | > 90 | 
24 | C=CC(C)(CCCc1ccc(F)c(Nc2ccccc2)c1)c1ccc(OCC)cc1 (centres unmarked) [(31), 3-(4-Ethoxyphenyl)-3-methyl-6-(3-anilino-4-fluorophenyl)-1-hexene] | A (90% or more) | > 90 | 
25 | C#CC(CC)(CCCc1cccc(Oc2ccccc2)c1)c1ccc(OCC)cc1 (centres unmarked) [(32), 3-(4-Ethoxyphenyl)-3-ethyl-6-(3-phenoxyphenyl)-1-hexyne] | A (90% or more) | > 90 | 
26 | C#CC(C)(CCCc1ccc(F)c(Oc2ccc(C)cc2)c1)c1ccc(OCC)cc1 (centres unmarked) [(33), 3-(4-Ethoxyphenyl)-3-methyl-6-{3-(4-methylphenoxy)-4-fluorophenyl}-1-hexyne] | A (90% or more) | > 90 | 
27 | C#CC(C)(CCCc1ccc(F)c(Oc2ccc(Cl)cc2)c1)c1ccc(OCC)cc1 (centres unmarked) [(34), 3-(4-Ethoxyphenyl)-3-methyl-6-{3-(4-chlorophenoxy)-4-fluorophenyl}-1-hexyne] | A (90% or more) | > 90 | 
28 | C#CC(C)(CCCc1cccc(Oc2ccccc2)c1)c1ccc(F)cc1 (centres unmarked) [(35), 3-(4-Fluorophenyl)-3-methyl-6-(3-phenoxyphenyl)-1-hexyne] | A (90% or more) | > 90 | 
29 | C#CC(C)(CCCc1ccc(F)c(Oc2ccccc2)c1)c1ccc(Cl)c(Cl)c1 (centres unmarked) [(36), 3-(3,4-Dichlorophenyl)-3-methyl-6-(3-phenoxy-4-fluorophenyl)-1-hexyne] | A (90% or more) | 10 to 90 | 
30 | C#CC(C)(CCCc1ccc(F)c(Oc2ccc(F)cc2)c1)c1ccc(OCC)cc1 (centres unmarked) [(38), 3-(4-Ethoxyphenyl)-3-methyl-6-{3-(4-fluorophenoxy)-4-fluorophenyl}-1-hexyne] | A (90% or more) | > 90 | 
31 | C#CC(C)(CCCc1ccc(F)c(Oc2ccccc2)c1)c1ccc(OCC=C)c(Cl)c1 (centres unmarked) [(40)] | A (90% or more) | 10 to 90 | 
32 | C#CC(CC)(CCCc1ccc(F)c(Oc2ccccc2)c1)c1ccc(Cl)cc1 (centres unmarked) [(41), 3-(4-Chlorophenyl)-3-ethyl-6-(3-phenoxy-4-fluorophenyl)-1-hexyne] | A (90% or more) | > 90 | 
33 | C#CC(CCCC)(CCCc1ccc(F)c(Oc2ccccc2)c1)c1ccc(OCC)cc1 (centres unmarked) [(42), 3-(4-Ethoxyphenyl)-3-n-butyl-6-(3-phenoxy-4-fluorophenyl)-1-hexyne] | A (90% or more) | 10 to 90 | 
34 | C#CC(C)(CCCc1cccc(Oc2ccccc2)n1)c1ccc(OC)cc1 (centres unmarked) [(44), 3-(4-methoxyphenyl)-3-methyl-6-(6-phenoxypyridin-2-yl)-1-hexyne] | A (90% or more) | 10 to 90 | 
35 | Cc1cc(Cl)ccc1N=CN(C)C [(E), Chlordimeform, reference compound] |  |  | - ~ +
